One series concerns the target T1, Neutrophil elastase (Homo sapiens, UniProt P08246).
T1 sequence (P08246 whole entry): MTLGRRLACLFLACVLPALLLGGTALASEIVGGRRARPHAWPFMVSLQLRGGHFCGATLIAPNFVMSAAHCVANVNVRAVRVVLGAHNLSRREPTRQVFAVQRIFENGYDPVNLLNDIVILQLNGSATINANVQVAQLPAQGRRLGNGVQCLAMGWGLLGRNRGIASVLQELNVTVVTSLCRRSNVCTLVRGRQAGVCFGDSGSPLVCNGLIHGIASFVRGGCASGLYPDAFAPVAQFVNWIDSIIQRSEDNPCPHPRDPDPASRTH
As to the kind of experiment: Inhibition of Human Neutrophil Elastase-catalyzed hydrolysis of the synthetic substrate MeO-Suc-Ala-Ala-Pro-Val-p- nitroanilide.

The nature of series [1]: Solubility in 0.01 M sodium phosphate buffer at pH = 7.4. The class given is physicochemical.

Converted amounts (≈) assume the structure as drawn.

On to `CC(C)C(NC(=O)Cn1c(-c2ccccc2)cc2c(=O)n(N(C)C)c(=O)[nH]c2c1=O)C(=O)C(F)(F)F` (centres undefined), for which the affinity on Neutrophil elastase corresponds to a Ki of 19 nM. Besides, the concentration in solution in series [1] (solubility) was 320 µg/mL (≈ 631 µM). On to `COc1ccc(Cn2c(=O)[nH]c3c(=O)n(CC(=O)NC(C(=O)C(F)(F)F)C(C)C)c(-c4ccccc4)cc3c2=O)cc1` (centres undefined), for which, at Neutrophil elastase, the Ki (as a rule, the equilibrium dissociation constant of an inhibitor or competing ligand from its target) was 5.7 nM. The solubility (in general, how much of the substance goes into solution per volume) in series [1] was found to be 230 µg/mL (≈ 393 µM). On Neutrophil elastase, `CC(C)[C@@H](NC(=O)Cn1ccc2c(=O)n(CC(=O)O)c(=O)[nH]c2c1=O)C(=O)C(F)(F)F` gave a Ki of 690 nM.

Turning to `CC(C)C(NC(=O)Cn1ccc2c(=O)n(-c3ccccc3)c(=O)[nH]c2c1=O)C(=O)C(F)(F)F` (centres undefined), the Ki on Neutrophil elastase came to 830 nM. Turning to `CC(C)C(NC(=O)Cn1ccc2c(=O)n(CCN3CCOCC3)c(=O)[nH]c2c1=O)C(=O)C(F)(F)F` (centres undefined), on Neutrophil elastase, the Ki was found to be 330 nM.

Molecule `CC(C)C(NC(=O)Cn1ccc2c(=O)n(C(C)(C)Cc3ccccc3)c(=O)[nH]c2c1=O)C(=O)C(F)(F)F` (centres undefined) gave a Ki at Neutrophil elastase of 16 nM. Turning to `CC(C)C(NC(=O)Cn1c(-c2ccccc2)cc2c(=O)n(C)c(=O)[nH]c2c1=O)C(=O)C(F)(F)F` (centres undefined), the Ki on Neutrophil elastase is 10 nM. The molecule also registered a solubility in series [1] of 44 µg/mL (≈ 92 µM). On the same counts, the results for `CC(C)C(NC(=O)Cn1ccc2c(=O)[nH]c(=O)[nH]c2c1=O)C(=O)C(F)(F)F` (centres undefined) are 910 nM and over 5000 µg/mL. In the case of `COC(Cn1c(=O)[nH]c2c(=O)n(CC(=O)NC(C(=O)C(F)(F)F)C(C)C)c(-c3ccccc3)cc2c1=O)OC` (centres undefined), at Neutrophil elastase, affinity was put at a Ki of 12 nM. The amount in solution in series [1] (solubility) came to 420 µg/mL (≈ 760 µM). `CC(C)C(NC(=O)Cn1c(-c2ccccc2)cc2c(=O)n(CCN3CCOCC3)c(=O)[nH]c2c1=O)C(=O)C(F)(F)F` (centres undefined): on Neutrophil elastase, the Ki amounted to 8.4 nM. In series [1], this molecule had a solubility of 300 µg/mL (≈ 519 µM). The molecule `CC(C)C(NC(=O)Cn1ccc2c(=O)n(CCc3cccc4ccccc34)c(=O)[nH]c2c1=O)C(=O)C(F)(F)F` (centres undefined) yielded a Ki on Neutrophil elastase of 21 nM. In the case of `CNC(=O)Cn1c(=O)[nH]c2c(=O)n(CC(=O)NC(C(=O)C(F)(F)F)C(C)C)c(-c3ccccc3)cc2c1=O` (centres undefined), the Ki at Neutrophil elastase came to 22 nM. This molecule also had a solubility in series [1] of 100 µg/mL (≈ 187 µM).

For the molecule `CC(C)C(NC(=O)Cn1ccc2c(=O)n(Cc3ccccc3)c(=O)[nH]c2c1=O)C(=O)C(F)(F)F` (centres undefined), the Ki at Neutrophil elastase is 160 nM. This molecule registered a solubility in series [1] of 730 µg/mL (≈ 1530 µM). For the molecule `CC(C)[C@@H](NC(=O)Cn1c(-c2ccccc2)cc2c(=O)n(CC(N)=O)c(=O)[nH]c2c1=O)C(=O)C(F)(F)F`, at Neutrophil elastase, affinity was put at a Ki of 15 nM. Also, in series [1], the concentration in solution (solubility) was 130 µg/mL (≈ 249 µM).

In turn, `CC(C)C(NC(=O)Cn1c(-c2ccccc2)cc2c(O)nc(O)nc2c1=O)C(=O)C(F)(F)F` (centres undefined) showed an inhibitory constant (Ki) on Neutrophil elastase of 15 nM. Besides, the solubility in series [1] was 220 µg/mL (≈ 474 µM).

On Neutrophil elastase, `CC(C)C(NC(=O)Cn1ccc2c(=O)n(Cc3cccc4ccccc34)c(=O)[nH]c2c1=O)C(=O)C(F)(F)F` (centres undefined) gave a Ki of 26 nM. On Neutrophil elastase, `CC(C)C(NC(=O)Cn1ccc2c(=O)n([C@H]3C[C@@H]3c3ccccc3)c(=O)[nH]c2c1=O)C(=O)C(F)(F)F` (some centres undefined) came in with an inhibition constant Ki of 230 nM. `CC(C)C(NC(=O)Cn1ccc2c(=O)n(CC(=O)c3ccccc3)c(=O)[nH]c2c1=O)C(=O)C(F)(F)F` (centres undefined) showed a Ki at Neutrophil elastase of 74 nM.

In the case of `CC(C)C(NC(=O)Cn1cccc(NC(=O)OCc2ccccc2)c1=O)C(=O)C(F)(F)F` (centres undefined), in series [1], the solubility came to 110 µg/mL (≈ 243 µM). `CC(C)C(NC(=O)Cn1ccc2c(=O)n(C)c(=O)[nH]c2c1=O)C(=O)C(F)(F)F` (centres undefined) returned a Ki at Neutrophil elastase of 620 nM. Same read-out and setting: as for `CC(=O)Cn1c(=O)[nH]c2c(=O)n(CC(=O)NC(C(=O)C(F)(F)F)C(C)C)ccc2c1=O` (centres undefined), the figure is 310 nM; as for `CC(C)[C@@H](NC(=O)Cn1c(-c2ccccc2)cc2c(=O)n(CC(=O)OCc3ccccc3)c(=O)[nH]c2c1=O)C(=O)C(F)(F)F`, 2.8 nM. `CCOCCn1c(=O)[nH]c2c(=O)n(CC(=O)NC(C(=O)C(F)(F)F)C(C)C)c(-c3ccccc3)cc2c1=O` (centres undefined) returned an inhibitory constant (Ki) on Neutrophil elastase of 7.5 nM. Besides, in series [1], the solubility was 8 µg/mL (≈ 14.9 µM). For `COc1ccc(Cn2c(=O)[nH]c3c(=O)n(CC(=O)NC(C(=O)C(F)(F)F)C(C)C)ccc3c2=O)cc1` (centres undefined), the Ki on Neutrophil elastase is 100 nM. Same read-out and setting: as for `CC(C)C(NC(=O)Cn1c(-c2ccccc2)cc2c(=O)n(CC(=O)NCc3ccccc3)c(=O)[nH]c2c1=O)C(=O)C(F)(F)F` (centres undefined), the figure is 9.9 nM; as for `COC(=O)Cn1c(=O)[nH]c2c(=O)n(CC(=O)N[C@@H](C(=O)C(F)(F)F)C(C)C)ccc2c1=O`, 490 nM. Regarding `CC(C)C(NC(=O)Cn1ccc2c(=O)n(CCc3ccccc3)c(=O)[nH]c2c1=O)C(=O)C(F)(F)F` (centres undefined), the Ki at Neutrophil elastase is 42 nM. On Neutrophil elastase, `CC(C)[C@@H](NC(=O)Cn1ccc2c(=O)n(CC(=O)OC(C)(C)C)c(=O)[nH]c2c1=O)C(=O)C(F)(F)F` gave a Ki of 290 nM.

The record behind these values is ChEMBL document CHEMBL1129513, “Nonpeptidic inhibitors of human neutrophil elastase. 7. Design, synthesis, and in vitro activity of a series of pyridopyrimidine trifluoromethyl ketones” (J Med Chem, 1996).
